Like-named read-outs stand apart in the source and are kept apart here.

Five compounds from article PMC8780855, “Synthesis, Crystallographic, Quantum Chemical, Antitumor, and Molecular Docking/Dynamic Studies of 4-Hydroxycoumarin-Neurotransmitter Derivatives” (International Journal of Molecular Sciences, 2022) can be followed below.

In one assay the test system is HCT-116 cells. Kind of assay: MTT cytotoxicity assay, HCT-116. In kind it is cell-based, human. Particulars: for IC50: Homo sapiens, MTT; for Selectivity index HCT-116/MRC-5 24 h: SI between HCT-116 and MRC-5, 24 h; for Selectivity index HCT-116/MRC-5 72 h: SI between HCT-116 and MRC-5, 72 h. On the procedure: (§1) The in vitro cytotoxic activity of the tested compounds was investigated on four model systems: human colorectal carcinoma HCT-116, human breast cancer MDA-MB-231, human cervical cancer HeLa, and human healthy fibroblast MRC-5 cell lines. The cell lines of low passages were purchased from ECACC and were cultivated in Dulbecco’s Modified Eagle Medium (DMEM; Sigma-Aldrich, Germany, D5796) supplemented with 10% fetal bovine serum (Sigma-Aldrich, F4135-500ML) and 1% penicillin/streptomycin (Sigma-Aldrich, P4333-100ML) in 75 cm^2 culture flasks. The cells were harvested in an incubator under a humidified atmosphere with 5% CO2 at a physiological temperature of 37 °C, and after a few passages and a confluence of about 90%, the cells were used for the MTT assay.
(§2) The capacity of tested compounds to prevent the growth of four different cell lines was assessed by a standardized MTT assay (Laboratory for Bioengineering protocol CB-005, Kragujevac, Serbia), based on spectrophotometric measurement of the reduction of 3-(4,5-dimethylthiazol-2-yl)-2,5-diphenyltetrazolium bromide (MTT, Acros Organics, NJ, USA 158990010) to purple formazan crystals subsequently dissolved in dimethyl sulfoxide (DMSO; Fisher Chemical, IL, USA D/4121/PB15). A number of 1 × 10^4 cells per well (in 96-well microplates) were seeded and maintained in an incubator for 24 h to allow for cell attachment. After the incubation period, the cells were treated with the investigated compounds in the concentration range from 0.1 to 500 µM dissolved in DMEM. Cytotoxic effect was calculated 24 and 72 h from treatment by determination of the number of viable cells. The absorbance measured at 550 nm and was performed on a microplate reader (Rayto 2100C, China). The cytotoxicity was derived as the ratio of the absorbance of the treated cells divided with the absorbance of negative control (untreated cells) and multiplied by 100 to obtain the percentage of the viable cells.
A general note: Formazan colour is commonly taken as a measure of viable cells.

The test system of a further assay is MRC-5 cells. Put plainly: MTT cytotoxicity assay, MRC-5 healthy fibroblasts. Type of assay: cell-based. Particulars: Homo sapiens. How it is done: as §1, §2
Another assay has as its system HeLa cells. Kind of assay: MTT cytotoxicity assay, HeLa. Type of assay: cell-based, human. To be noted: for IC50: Homo sapiens, HeLa, MTT; for Selectivity index HeLa/MRC-5 24 h: SI between HeLa and MRC-5, 24 h; for Selectivity index HeLa/MRC-5 72 h: SI between HeLa and MRC-5, 72 h. How it is done:
as §1, §2

A further assay deals with MDA-MB-231 cells. Put plainly: MTT cytotoxicity assay, MDA-MB-231. To be noted: Homo sapiens. In kind it is cell-based. On the procedure: as §1, §2
Setting [1] is: read-out: IC50 HCT-116 24 h, HCT-116, 24 h exposure.
[2] abbreviates: HCT-116, 72 h exposure, read-out: IC50 HCT-116 72 h.
[3] abbreviates: MRC5, MRC-5, 72 h exposure, read-out: IC50 MRC-5 72 h.
[4] abbreviates: MRC5, read-out: IC50 MRC-5 24 h, MRC-5, 24 h exposure.
Where [5] appears, read: read-out: IC50 HeLa 24 h, 24 h exposure.
[6] abbreviates: 72 h exposure, read-out: IC50 HeLa 72 h.
Setting [7] is: MDA-MB-231, 72 h exposure, read-out: IC50 MDA-MB-231 72 h.
[8] abbreviates: read-out: IC50 MDA-MB-231 24 h, MDA-MB-231, 24 h exposure.

As to `CC(NCCc1ccc(O)c(O)c1)=C1C(=O)Oc2ccccc2C1=O` [L5, 3-(1-((3,4-dihydroxyphenethyl)amino)ethylidene)-chroman-2,4-dione], the IC50 (commonly the concentration needed to halve the response being measured) in the assay on HCT-116 cells (setting [1]) is > 500 µM; in the assay on HCT-116 cells (setting [2]), 73 µM; in the assay with MRC-5 cells (setting [3]), > 500 µM; with MRC-5 cells (setting [4]), > 500 µM; with HeLa cells (setting [5]) it was > 500 µM; in the assay with HeLa cells (setting [6]), 92 µM. Moreover, the half-inhibitory concentration (IC50) in the assay with MDA-MB-231 cells (setting [7]) and with MDA-MB-231 cells (setting [8]) was > 500 µM throughout. Moreover, the “Selectivity index HCT-116/MRC-5 24 h” value in the assay with HCT-116 cells is 1. Also, the “Selectivity index HCT-116/MRC-5 72 h” value in the assay with HCT-116 cells amounted to 6.8. Further, the “Selectivity index HeLa/MRC-5 24 h” value in the assay with HeLa cells is 1. The “Selectivity index HeLa/MRC-5 72 h” value with HeLa cells came out at 5.4.

As for `C/C(NCC(O)c1ccc(O)cc1)=C1\C(=O)Oc2ccccc2C1=O` (stereo not drawn) [L2, (E)-3-(1-((2-hydroxy-2-(4-hydroxyphenyl)ethyl)amino)ethylidene)chromane-2,4-dione], the IC50 is > 500 µM with HCT-116 cells (setting [1]); 248 µM in the assay on HCT-116 cells (setting [2]); > 500 µM in the assay with MRC-5 cells (setting [3]); > 500 µM in the assay on MRC-5 cells (setting [4]); > 500 µM in the assay on HeLa cells (setting [5]); 206 µM in the assay with HeLa cells (setting [6]). In addition, the half-inhibitory concentration (IC50) with MDA-MB-231 cells (setting [7]) and in the assay on MDA-MB-231 cells (setting [8]) was > 500 µM in each case. In the assay with HCT-116 cells, the “Selectivity index HCT-116/MRC-5 24 h” value was 1. For the same compound, the “Selectivity index HCT-116/MRC-5 72 h” value with HCT-116 cells is 2.0. Also, the “Selectivity index HeLa/MRC-5 24 h” value in the assay with HeLa cells is 1. Further, in the assay with HeLa cells, the “Selectivity index HeLa/MRC-5 72 h” value is 2.4.

In the case of `C/C(NCCc1ccc(O)cc1)=C1\C(=O)Oc2ccccc2C1=O` [L1, (E)-3-(1-((4-hydroxyphenethyl)amino)ethylidene)chromane-2,4-dione], the IC50 with HCT-116 cells (setting [1]) is > 500 µM; with HCT-116 cells (setting [2]) it was 170 µM; with MRC-5 cells (setting [3]), > 500 µM; with MRC-5 cells (setting [4]) it was > 500 µM; in the assay with HeLa cells (setting [5]), > 500 µM; in the assay on HeLa cells (setting [6]) it was 452 µM. Besides, the IC50 with MDA-MB-231 cells (setting [7]) and with MDA-MB-231 cells (setting [8]) was > 500 µM in each case. Moreover, the “Selectivity index HCT-116/MRC-5 24 h” value in the assay on HCT-116 cells is 1. Further, in the assay with HCT-116 cells, the “Selectivity index HCT-116/MRC-5 72 h” value was found to be 2.9. Further, the “Selectivity index HeLa/MRC-5 24 h” value in the assay on HeLa cells came to 1. The “Selectivity index HeLa/MRC-5 72 h” value with HeLa cells is 1.1.

In the case of `C/C(NCC(O)c1ccc(O)c(O)c1)=C1\C(=O)Oc2ccccc2C1=O` (stereo not drawn) [L3, (E)-3-(1-((2-(3,4-dihydroxyphenyl)-2-hydroxyethyl)amino)ethylidene)chromane-2,4-dione], the IC50 in the assay with HCT-116 cells (setting [1]) was > 500 µM; with HCT-116 cells (setting [2]) it was 107 µM; with MRC-5 cells (setting [3]) it was > 500 µM; with MRC-5 cells (setting [4]), > 500 µM; in the assay on HeLa cells (setting [5]) it was > 500 µM; in the assay with HeLa cells (setting [6]) it was 495 µM. Further, the IC50 in the assay with MDA-MB-231 cells (setting [7]) and with MDA-MB-231 cells (setting [8]) was > 500 µM throughout. For the same compound, the “Selectivity index HCT-116/MRC-5 24 h” value in the assay on HCT-116 cells is given as 1. In the assay on HCT-116 cells, the “Selectivity index HCT-116/MRC-5 72 h” value was determined as 4.7. The “Selectivity index HeLa/MRC-5 24 h” value in the assay with HeLa cells was 1. The “Selectivity index HeLa/MRC-5 72 h” value in the assay on HeLa cells was found to be 1.

Regarding `COc1cc(CCN/C(C)=C2/C(=O)Oc3ccccc3C2=O)ccc1O` [L4, (E)-3-(1-((4-hydroxy-3-methoxyphenethyl)amino)ethylidene)chromane-2,4-dione], the IC50 is > 500 µM with HCT-116 cells (setting [1]); 74 µM with HCT-116 cells (setting [2]); > 500 µM in the assay with MRC-5 cells (setting [3]); > 500 µM in the assay with MRC-5 cells (setting [4]); > 500 µM in the assay with HeLa cells (setting [5]); 150 µM in the assay on HeLa cells (setting [6]). For the same compound, the IC50 in the assay on MDA-MB-231 cells (setting [7]) and in the assay on MDA-MB-231 cells (setting [8]) was > 500 µM in each case. The “Selectivity index HCT-116/MRC-5 24 h” value in the assay with HCT-116 cells was found to be 1. Also, the “Selectivity index HCT-116/MRC-5 72 h” value with HCT-116 cells turned out to be 6.8. The “Selectivity index HeLa/MRC-5 24 h” value in the assay with HeLa cells is 1. The “Selectivity index HeLa/MRC-5 72 h” value with HeLa cells is 3.3.
